How the values were obtained:
[1] = target: T1, 5-hydroxytryptamine receptor 6 (Homo sapiens, UniProt P50406); assay: Radioligand Labeled Binding Assay and cAMP Production; settings: pH 7.4; 22 °C
Description: (§1) IC50 values for each test compound were determined from nonlinear regression analysis of data collected from ligand binding experiments. The inhibition constant (Ki) was calculated from IC50 value by the Cheng and Prusoff equation.

[2] = target: T1, 5-hydroxytryptamine receptor 6; assay: Radioligand Labeled Binding Assay; settings: pH 7.4; 22 °C
Description: as §1

T1 sequence (P50406 whole entry): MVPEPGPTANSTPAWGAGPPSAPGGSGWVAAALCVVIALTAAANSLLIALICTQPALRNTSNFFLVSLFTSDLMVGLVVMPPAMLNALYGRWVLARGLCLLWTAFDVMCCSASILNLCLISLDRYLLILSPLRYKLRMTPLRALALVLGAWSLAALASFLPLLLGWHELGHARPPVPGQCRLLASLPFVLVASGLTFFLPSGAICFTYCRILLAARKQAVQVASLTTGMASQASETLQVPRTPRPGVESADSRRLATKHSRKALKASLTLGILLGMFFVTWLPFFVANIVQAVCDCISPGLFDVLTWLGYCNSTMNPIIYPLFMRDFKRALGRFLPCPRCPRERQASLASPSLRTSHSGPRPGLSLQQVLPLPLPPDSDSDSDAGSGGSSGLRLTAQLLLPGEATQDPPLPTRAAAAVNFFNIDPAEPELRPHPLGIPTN

| SMILES | EC50 [1] | Ki [2] | Ki [1] |
| --- | --- | --- | --- |
| COc1ccc(S(=O)(=O)n2cc(CCN)c3ccccc32)cc1OC [2-{1-[(3,4-dimethoxybenzene)sulfonyl]-1H-indol-3-yl}ethan-1-amine] | 17.5 nM |  |  |
| NC(N)=NN=Cc1c[nH]c2ccc(Br)cc12 [3-[(E)-[(5-bromo-1H-indol-3-yl)methylidene]amino]guanidine] |  | 25 nM |  |
| CC(=NNC(=N)N)c1cn(S(=O)(=O)c2ccccc2)c2ccccc12 [3-[(E)-{1-[1-(benzenesulfonyl)-1H-indol-3-yl]ethylidene}amino]guanidine] |  | 8 nM |  |
| Cc1nc(N)sc1S(=O)(=O)n1cc(CCN)c2ccccc21 [5-{[3-(2-aminoethyl)-1H-indole-1-]sulfonyl}-4-methyl-1,3-thiazol-2-amine] | 9.6 nM |  | 10 nM |
